Results: patent US8507533B2, “Glucagon receptor modulators” (Pfizer Inc., priority 2011, dated 2013)

Tests used:
human glucagon receptor [1] = target: T1, human glucagon receptor (Homo sapiens (Human), UniProt P47871); experiment: Glucagon cAMP Assay (Cisbio cAMP detection); assay type: cell-based; settings: CHOK1 cells stably transfected with the human glucagon receptor; block of glucagon induced cAMP production; Kb by modified Cheng-Prusoff equation
human glucagon receptor [2] = target: T1, human glucagon receptor; experiment: Human Glucagon SPA Assay (binding of [125I]Glucagon-Cex); settings: membrane from chem-1 cells stably transfected with the human glucagon receptor, Ki by Cheng-Prusoff equation
Method: The Glucagon SPA assay is used to determine the ability of test compounds to block the binding of glucagon-cex to the glucagon receptor. Test compounds are re-suspended and serially diluted in 100% DMSO. 1 μl of test compound at the desired concentrations is spotted into the appropriate wells of 96 well low binding white clear bottom plate (Corning). 1 μl of DMSO is spotted into total binding wells. 1 μl of a known glucagon antagonist at a concentration of 20 μM is added to non specific binding wells. […] All assay ingredients with the exception of test compounds are re-suspended in the following buffer; 50 mM Hepes pH 7.4; 5 mM MgCl2; 1 mM CaCl; 5% glycerol and 0.2% BSA. Following a 6-10 hr incubation at room temperature the amount of hot ligand bound to the cell membranes is determined by reading the plates on a Wallac Trilux radioactive emission detector. Data is analyzed using Pfizer's Data analysis program. IC50 values are then determined from the generated sigmoidal dose response curves. Ki values are calculated using Cheng-Prusoff equation. N is the number of times the compound was assayed.

T1 sequence (P47871 26-477): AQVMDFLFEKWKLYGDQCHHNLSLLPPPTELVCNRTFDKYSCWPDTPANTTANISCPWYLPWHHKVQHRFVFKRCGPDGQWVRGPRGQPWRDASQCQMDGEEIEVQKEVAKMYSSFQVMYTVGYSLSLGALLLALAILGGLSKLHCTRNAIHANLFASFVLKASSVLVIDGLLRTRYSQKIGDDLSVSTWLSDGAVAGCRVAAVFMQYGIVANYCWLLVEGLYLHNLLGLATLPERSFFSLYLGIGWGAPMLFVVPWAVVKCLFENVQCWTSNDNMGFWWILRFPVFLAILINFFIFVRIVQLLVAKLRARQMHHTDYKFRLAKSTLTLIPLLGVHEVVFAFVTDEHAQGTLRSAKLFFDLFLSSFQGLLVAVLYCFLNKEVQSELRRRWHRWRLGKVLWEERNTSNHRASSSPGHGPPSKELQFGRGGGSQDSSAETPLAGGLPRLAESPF

Structure (SMILES)	Kb (human glucagon receptor [1]) [nM]	Ki (human glucagon receptor [2]) [nM]
CCCC(Oc1ccc(-n2cc3ccc(F)cc3n2)cc1)c1ccc(C(=O)NCCC(=O)O)cc1 (racemic) [Example 186, (+/−)-3-(4-{1-[4-(6-fluoro-indazol-2-yl)-phenoxy]-butyl}-benzoylamino)-propionic acid]	192	175
O=C(O)CCNC(=O)c1ccc(C(Nc2ccc(-n3cnc(C(F)(F)F)c3)nc2)C2CCCC2)cc1 (single isomer, unassigned) [Example 98, 3-(4-(cyclopentyl(6-(4-(trifluoromethyl)-1H-imidazol-1-yl)pyridin-3-ylamino)methyl)benzamido)propanoic acid]	1060	1100
CCCC(Nc1ccc(-n2cc(C(F)(F)F)cn2)nc1)c1ccc(C(=O)NCCC(=O)O)cc1F (single isomer, unassigned) [Example 109, 3-(3-fluoro-4-(1-(6-(4-(trifluoromethyl)-1H-pyrazol-1-yl)pyridin-3-ylamino)butyl)benzamido)propanoic acid]	1710	153
CCCC(Nc1ccc(-n2cc(C(F)(F)F)cn2)nc1)c1ccc(C(=O)NCCC(=O)O)cc1C (single isomer, unassigned) [Example 111, 3-(3-methyl-4-(1-(6-(4-(trifluoromethyl)-1H-pyrazol-1-yl)pyridin-3-ylamino)butyl)benzamido)propanoic acid]	2350	202
CCCC(Oc1ccc(-n2cc3ccccc3n2)c(C)c1)c1ccc(C(=O)NCCC(=O)O)cc1 (single isomer, unassigned) [Example 116, 3-(4-(1-(4-(2H-indazol-2-yl)-3-methylphenoxy)butyl)benzamido)propanoic acid]	450	464
O=C(O)CCNC(=O)c1ccc(C(Nc2ccc(-n3cnc(Cl)c3)nc2)C2CCCC2)cc1 (single isomer, unassigned) [Example 120, 3-(4-((6-(4-chloro-1H-imidazol-1-yl)pyridin-3-ylamino)(cyclopentyl)methyl)benzamido)propanoic acid]	65	225

Now those with a lower Ki (human glucagon receptor [2]), led by results:

Kb (human glucagon receptor [1]) [nM]	Ki (human glucagon receptor [2]) [nM]	Structure (SMILES)
126	143	CCCC(Nc1ccc(-n2cc(C(F)(F)F)cn2)nc1)c1ccc(C(=O)NCCC(=O)O)cc1C (single isomer, unassigned) [Example 112]
90.8	93	O=C(O)CCNC(=O)c1ccc(C(Nc2ccc(-n3cnc(C(F)(F)F)c3)nc2)C2CCCC2)cc1 (single isomer, unassigned) [Example 97, 3-(4-(cyclopentyl(6-(4-(trifluoromethyl)-1H-imidazol-1-yl)pyridin-3-ylamino)methyl)benzamido)propanoic acid]
97	57.2	CCCC(Nc1ccc(-n2cc(C(F)(F)F)cn2)nc1)c1ccc(C(=O)NCCC(=O)O)cc1F (single isomer, unassigned) [Example 110, 3-(3-fluoro-4-(1-(6-(4-(trifluoromethyl)-1H-pyrazol-1-yl)pyridin-3-ylamino)butyl)benzamido)propanoic acid]
13	29.3	CCCC(Nc1ccc(-n2cnc(-c3ccccc3)c2)nc1)c1ccc(C(=O)NCCC(=O)O)cc1 (single isomer, unassigned) [Example 129, 3-(4-(1-(6-(4-phenyl-1H-imidazol-1-yl)pyridin-3-ylamino)butyl)benzamido)propanoic acid]
231	15.8	CC1(C)CC(C(Nc2ccc(-n3cc(C(F)(F)F)cn3)nc2)c2ccc(C(=O)NCCC(=O)O)cc2)C1 (single isomer, unassigned) [Example 115, 3-(4-((3,3-dimethylcyclobutyl)(6-(4-(trifluoromethyl)-1H-pyrazol-1-yl)pyridin-3-ylamino)methyl)benzamido)propanoic acid]
17	7.6	CC1(C)CC(C(Nc2ccc(-n3cc(C(F)(F)F)cn3)nc2)c2ccc(C(=O)NCCC(=O)O)cc2)C1 (single isomer, unassigned) [Example 114, 3-(4-((3,3-dimethylcyclobutyl)(6-(4-(trifluoromethyl)-1H-pyrazol-1-yl)pyridin-3-ylamino)methyl)benzamido)propanoic acid]
